{"source": "patent US9402911B2", "about": "“Multifunctional small molecules” (The Regents of the University of Michigan, priority 2011, dated 2016)", "target": "Folate binding protein (FBP, bovine milk) (Bos taurus, UniProt P02702)", "sequence (P02702 20-234)": "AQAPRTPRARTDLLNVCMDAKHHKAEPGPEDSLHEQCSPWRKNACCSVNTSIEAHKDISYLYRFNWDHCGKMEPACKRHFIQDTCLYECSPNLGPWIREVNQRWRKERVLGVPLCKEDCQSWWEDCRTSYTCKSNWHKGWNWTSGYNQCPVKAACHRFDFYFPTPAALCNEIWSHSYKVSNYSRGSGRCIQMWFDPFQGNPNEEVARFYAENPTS", "experiment": "SPR binding to immobilized folate binding protein", "details": "read-out: equilibrium dissociation constant KD, FBP chip, free MTX", "experimental": "SPR analysis was performed in a Biacore® X instrument (Pharmacia Biosensor AB, Uppsala, Sweden).\nFolate binding protein (FBP)-presenting chip was prepared at the surface protein density of 11 ng/mm^2 (≈2-3 FBP per 10 nm^2) following an EDC-based amide coupling method as described previously (see, e.g., Hong, S.; et al., Chem. Biol. 2007, 14, 107-15; Plantinga, A.; et al., ACS Med. Chem. Lett. 2011, 2, 363-67; each herein incorporated by reference in their entireties).\nIn an approach to determine the equilibrium dissociation constants (KD) for G5-MTXn on a quantitative basis, the SPR data was analyzed by using the non-linear regression method as established for SPR analysis (see, e.g., Ober, R. J.; et al., Anal. Biochem. 2003, 312, 57-65; herein incorporated by reference in its entirety). This analytical method enabled the SPR data to be fit according to a linear combination of exponential functions, and to extract the estimates for their kinetic rate constants (kon, koff) and KD (FIG. 7).", "data": [{"smiles": "CN(Cc1cnc2nc(N)nc(N)c2n1)c1ccc(C(=O)N[C@@H](CCC(=O)O)C(=O)O)cc1", "note": "[MTX, methotrexate]", "values": [{"measurement": "Kd", "value": 24, "unit": "µM"}]}]}
